Measured values: patent US20230102836A1, “Amoebicidal Compositions for Contact Lens Solutions” (University of the West of Scotland, priority 2019, published 2023)
“And” between values parts separate entries of the source, which are not always exact repeats. Equal values may be shown once.

How the values were obtained:
[1] = QACs; cited from earlier work
[2] = system: Acanthamoeba trophozoites; assay: Checkerboard dilution QAC-APC interaction (Bliss model); type: cell-based, Acanthamoeba castellanii; conditions: APC12, APC14, APC16; 96 h at 25° C.
Protocol: Acanthamoeba trophozoites (10^5 cells/ml. n=5/treatment) treated with 100 μg/ml doubly diluted to 0.06 μg/ml of QAC12 (FIG. 7A), […], QAC16 (FIG. 7C) and QAC18 (FIG. 7D) with APC 12 (i), APCI 4 (ii) and APC16 (iii) for 96 h at 25° C. Cell viability estimated by the alamarBlue assay the dose-response curves used to produce a surface analysis (right panel) and the interaction profile determined using the Bliss model. The degree of interaction characterised by the QCScore heuristic score are produced as heat map (left panel). The colour of each cell in the heatmap and the surface analysis represents the assay response at that dose combination; red to orange, antagonistic: yellow to green, additive and blue, synergistic.
The change in potency between QAC and APC prompted us to used the checkerboard dilution method to identify synergistic interactions (FIG. 7A-D). Three interaction profiles, antagonistic (orange to red), additive (yellow to green) and synergistic (blue) were observed, with optimal synergistic interactions deemed to be significant occurring between 20-38%; (FIG. 7).

gDNA from A. castellanii = assay: QAC-DNA interaction assay; type: binding, Acanthamoeba castellanii; conditions: DNA:QAC ratios 1:0, 1:1, 1:10, 1:20; 15 min
Protocol: FIGS. 3A and 3B show the QAC-DNA interaction. The absorbance of genomic DNA (0.6 ng/ml) extracted from A. castellani trophozoites measured at 260 nm with the Nanodrop after incubating for 15 minutes with 0 ng/ml, 0.6 ng/ml, 6 ng/ml or 12 ng/ml of QAC12 (FIG. 3A) or QAC16 (FIG. 3B) to give ratios of 1:0, 1:1, 1:10 and 1:20. DNA absorbance increased and decreased with increased […] and [QAC12] respectively. Data is mean absorbance at 260 nm±SD; n=4 independent experiments performed in triplicates.
Genomic deoxynucleic acids (gDNA) from 10^8 A. castellanii trophozoites (treated with and without QAC) were extracted from cells harvested by centrifugation (850×g, 10 min), lysed with UNSET buffer (8M urea, […] NaCl, 2% SDS, […] ethylenediaminetetraacetic acid (EDTA), […] Tris-HCl, pH 7.5) and the DNA extracted with phenol-chloroform (1:1 v/v). The biphasic suspension with DNA enriched on the […] was centrifuged (12,000×g for 15 min, 4° C.) for clear separation and transferred to a new microcentrifuge tube. The DNA was precipitated with cold ethanol (100%, v/v) and 0.3M sodium acetate, washed twice with 70% (v/v) ethanol (12,000×g for 10 min, 4° C.), air dried and resuspended in distilled water. […]

A. castellanii cysts = assay: Cytotoxicity assay on cysts (trypan blue); type: cell-based, Acanthamoeba castellanii ATCC 50370; conditions: Acanthamoeba castellanii, read-out: IC50 A. castellanii cysts
Protocol: (§1) Acanthamoeba castellanii ATCC 50370 trophozoites and cysts were cultured in Peptone Glucose (PG) medium and encystment medium (Chagla A H, Griffiths A J (1974) Microbiology: 85(1): 139-145) respectively at 25° C. Cysts were prepared by incubating trophozoites for 8 days in encystment medium and integrity validated with calcofluor (0.25 μg/ml) assay (Gatti S et al (2010) J. Med. Microbiol.; 59: 1324-1330) or sodium dodecyl sulfate (SDS, 0.5% w/v) disintegration assay (Dudley R et al (2005) Acta Trop.; 9: 100-8) and microscopic observation.
The compounds used in this study all contained alkyl-carbon chains: three APCs [dodecyl-PC (APC12), tetradecyl-PC. (APC14) and hexadecyl-PC (APC16)] (Anatrace) and four QACs [docdecyl-TMAB (QAC12), tetradecyl-TMAB (QAC14), hexadecyl-TMAB (QAC16) and octadecyl-TMAB (QAC18)](Sigma). All were prepared to a stock concentration of 1 mg/ml and diluted as required by the experimental protocol in the cytotoxicity assays. A. castellanii trophozoites and cysts (at 10^5 cells/ml) with or without APCs or QACs (concentrations ranging from […] doubly diluted to 0.04 μg/ml to a final volume of 100 μl) in a 96-well plate were incubated at 25° C. for a duration determined by the experimental protocol.
For the combined assay, similar concentrations of QAC18 and APC16 were prepared and 18.75 μg/ml and 37.5 μg/ml of QAC12 added (to a final volume of 100 μl) were added to 10^5 cells/mi in a 96-well plate and later incubated at 25° C. for a duration determined by the experimental protocol. Resazurin (7-Hydroxy-31-phenoxazin-3-one 10-oxide; 5 mg/ml; McBride J et al (2005) J. Clin. Microbiol.; 43: 629-634) and trypan blue (0.4 μg/ml; Mafra C S P et al (2013) Investig. Ophthalmol. Vis. Si.; 54: 6363-6372) were then added to trophozoites and cysts respectively after being exposed to the compounds and the cell viability estimated microscopically and from changes in absorbance (at 595 nm and 570 nm) respectively.
(§2) Efficacy was expressed as a percentage of untreated controls for each drug concentration used and the data used to calculate the IC50. Cell density was estimated using the modified Neubaur hemocytometer and expressed as cells/ml.

[3] = system: A. castellanii trophozoites; assay: Trophozoite-cyst conversion in encystment medium; type: cell-based, Acanthamoeba castellanii ATCC 50370; conditions: encystment medium supplemented with 37.5 μg/ml of QAC12
Protocol: Acanthamoeba trophozoites (10^5 cells/ml) incubated for up to 192 h in encystment medium inoculated with (dark grey) and without (light grey) QAC12 at 25° C. The number of trophozoites remaining estimated microscopically and expressed as a percent of total trophozoites at the start of the assay. Data is mean […]±SD; n=4 independent experiments performed in triplicates.
as §1

[4] = system: A. castellanii trophozoites; assay: Cytotoxicity assay on trophozoites (resazurin / alamarBlue); type: cell-based, Acanthamoeba castellanii ATCC 50370
Protocol: as §1
The compounds used in this study all contained alkyl-carbon chains: three APCs [dodecyl-PC (APC12), tetradecyl-PC. (APC14) and hexadecyl-PC (APC16)] (Anatrace) and four QACs [docdecyl-TMAB (QAC12), tetradecyl-TMAB (QAC14), hexadecyl-TMAB (QAC16) and octadecyl-TMAB (QAC18)](Sigma). All were prepared to a stock concentration of 1 mg/ml and diluted as required by the experimental protocol in the cytotoxicity assays. […]
[…] Resazurin (7-Hydroxy-31-phenoxazin-3-one 10-oxide; 5 mg/ml; McBride J et al (2005) J. Clin. Microbiol.; 43: 629-634) and trypan blue (0.4 μg/ml; Mafra C S P et al (2013) Investig. Ophthalmol. Vis. Si.; 54: 6363-6372) were then added to trophozoites and cysts respectively after being exposed to the compounds and the cell viability estimated microscopically and from changes in absorbance (at 595 nm and 570 nm) respectively.
as §2

CCCCCCCCCCCC[N+](C)(C)C.[Br-] [QAC12, Dodecyltrimethyl ammonium bromide]
CMC [1]: ^+3.5 ± 0.3 μM | Interaction profile of QAC combined with APCs [2]: Significant synergistic ‘well defined’ interactions were more predominant | Change of gDNA absorbance at 260 nm with increasing QAC (gDNA from A. castellanii): dose-dependent decreased absorbance | IC50 (A. castellanii cysts): > 37.5 µg/mL and > 122 µM | Delay of encystation [3]: 96 h | Increase in absorbance at 570 nm (cell density) relative to control cells ([4]; 96 h at 25° C., peak at 37.7 μg/ml, alamarBlue): 4 fold | IC50 ([4]; Acanthamoeba castellanii, Table 2, read-out: IC50 A. castellanii trophozoites): > 37.5 µg/mL and > 122 µM | Effect on trophozoite biomass ([4]; FIG. 4): dose-dependent increased biomass | Activity against A. castellanii trophozoites ([4]; at up to 37.5 μg/ml): inactive
